Converted amounts (≈) assume the structure as drawn.
What was measured:
Test in all cases: Minimum inhibitory concentration, standard serial dilution method, nutrient agar
Type in all cases: cell-based
[1] = test system: Escherichia coli K12 ML1629; conditions: K12ML1629, 18 h, read-out: Minimum Inhibitory Concentration
Description: (§1) 3'-Deoxyneamine, 3'-deoxy-6'-N-methylneamine, 3'-deoxyribostamycin, 3'-deoxy-6'-N-methylribostamycin, 3'-deoxykanamycin B, 3'-deoxy-6'-N-methylkanamycin B and 3'-deoxyparomamine which are produced by the process of this invention have been confirmed to be identical to their authentic samples, respectively, by making comparison between their n.m.r. spectra (in D2 O), mass spectra of their derivatives, thin layer chromatography on silica gel (developed with 4:5:2:5 n-butanolethanol-chloroform-17% aqueous ammonia) and antibacterial spectra. […] These 3'-deoxy derivatives are of low toxicity similarly to their parent substances and are useful for the therapeutic treatment of infections by gram-positive and gram-negative bacteria. 3'-Deoxyparomamine is useful as an intermediate for synthesis of any valuable derivative of aminoglycosidic antibiotics. The minimum inhibitory concentrations (mcg/ml) of these 3'-deoxy derivatives against various microorganisms were determined according to a standard serial dilution method using nutrient agar incubation medium at 37° C, the estimation being effected after 18 hours incubation.

[2] = test system: Pseudomonas aeruginosa No.12; conditions: NO.12, 18 h, read-out: Minimum Inhibitory Concentration
Description: as §1

[3] = test system: Escherichia coli K12 LA290 R55; conditions: K12LA290R55, 18 h, read-out: Minimum Inhibitory Concentration
Description: as §1

[4] = test system: Escherichia coli K12 JR66/W677; conditions: K12JR66/W677, 18 h, read-out: Minimum Inhibitory Concentration
Description: as §1

[5] = test system: Pseudomonas aeruginosa GN315; conditions: GN315, 18 h, read-out: Minimum Inhibitory Concentration
Description: as §1

[6] = test system: Pseudomonas aeruginosa A3; conditions: A3, 18 h, read-out: Minimum Inhibitory Concentration
Description: as §1

[7] = test system: Escherichia coli K12 ML1410; conditions: K12ML1410, 18 h, read-out: Minimum Inhibitory Concentration
Description: as §1

[8] = test system: Staphylococcus aureus FDA 209P; conditions: FDA209P, 18 h, read-out: Minimum Inhibitory Concentration
Description: as §1

[9] = test system: Escherichia coli K12 W677; conditions: K12W677, 37° C, 18 hours
Description: as §1

Escherichia coli K12 = conditions: K12, 18 h, read-out: Minimum Inhibitory Concentration
Description: as §1

SMILES	MIC [1]	MIC [2]	MIC [3]	MIC [4]	MIC [5]	MIC [6]	MIC [7]	MIC [8]	MIC [9]	MIC (Escherichia coli K12)
N[C@@H]1C[C@H](O)[C@@H](CO)O[C@@H]1O[C@H]1[C@H](O)[C@@H](O)[C@H](N)C[C@@H]1N [3'-Deoxyparomamine, 3'-deoxyparomamine]	100 µg/mL (≈ 325 µM)	> 100 µg/mL	50 µg/mL (≈ 163 µM)	> 100 µg/mL	> 100 µg/mL	> 100 µg/mL	> 100 µg/mL	50 µg/mL (≈ 163 µM)	> 100 µg/mL	100 µg/mL (≈ 325 µM)
NC[C@H]1O[C@H](O[C@H]2[C@H](O)[C@@H](O)[C@H](N)C[C@@H]2N)[C@H](N)C[C@@H]1O [3'-Deoxyneamine, 3'-deoxyneamine]	6.25 µg/mL (≈ 20.4 µM)	6.25 µg/mL (≈ 20.4 µM)	100 µg/mL (≈ 326 µM)	> 100 µg/mL	> 100 µg/mL	6.25 µg/mL (≈ 20.4 µM)	6.25 µg/mL (≈ 20.4 µM)	3.12 µg/mL (≈ 10.2 µM)	6.25 µg/mL (≈ 20.4 µM)	6.25 µg/mL (≈ 20.4 µM)
NC[C@H]1O[C@H](O[C@H]2[C@H](O)[C@@H](O[C@H]3O[C@H](CO)[C@@H](O)[C@H](N)[C@H]3O)[C@H](N)C[C@@H]2N)[C@H](N)C[C@@H]1O [3'-Deoxykanamycin B, 3'-deoxykanamycin B]	0.78 µg/mL (≈ 1.67 µM)	0.78 µg/mL (≈ 1.67 µM)	50 µg/mL (≈ 107 µM)	50 µg/mL (≈ 107 µM)	100 µg/mL (≈ 214 µM)	0.78 µg/mL (≈ 1.67 µM)	0.78 µg/mL (≈ 1.67 µM)	0.78 µg/mL (≈ 1.67 µM)	1.56 µg/mL (≈ 3.34 µM)	0.78 µg/mL (≈ 1.67 µM)
CNC[C@H]1O[C@H](O[C@H]2[C@H](O)[C@@H](O[C@H]3O[C@H](CO)[C@@H](O)[C@H](N)[C@H]3O)[C@H](N)C[C@@H]2N)[C@H](N)C[C@@H]1O [3'-Deoxy-6'-N-methylkanamycin B, 3'-deoxy-6'-N-methylkanamycin B]	1.56 µg/mL (≈ 3.24 µM)	0.78 µg/mL (≈ 1.62 µM)	50 µg/mL (≈ 104 µM)	50 µg/mL (≈ 104 µM)	6.25 µg/mL (≈ 13 µM)	0.78 µg/mL (≈ 1.62 µM)	1.56 µg/mL (≈ 3.24 µM)	1.56 µg/mL (≈ 3.24 µM)	1.56 µg/mL (≈ 3.24 µM)	0.78 µg/mL (≈ 1.62 µM)
NC[C@H]1O[C@H](O[C@H]2[C@H](O[C@@H]3O[C@H](CO)[C@@H](O)[C@H]3O)[C@@H](O)[C@H](N)C[C@@H]2N)[C@H](N)C[C@@H]1O [3'-Deoxyribostamycin, 3'-deoxyribostamycin]	> 100 µg/mL	3.12 µg/mL (≈ 7.12 µM)	> 100 µg/mL	> 100 µg/mL	> 100 µg/mL	3.12 µg/mL (≈ 7.12 µM)	6.25 µg/mL (≈ 14.3 µM)	6.25 µg/mL (≈ 14.3 µM)	3.12 µg/mL (≈ 7.12 µM)	6.25 µg/mL (≈ 14.3 µM)

From US4060682A, “Process for the synthetic production of 3-deoxy derivative of an aminoglycosidic antibiotic” (priority 1974, dated 1977)
